Measured values: patent publication US5610159A, “N-oxides of morpholine derivatives and their use as therapeutic agents” (Merck Sharp & Dohme Limited, priority 1995, dated 1997)

Assay: stability of crystals on storage
Type: physicochemical
Description: Dimethylamine (approximately 10 ml) was condensed at -80° C. in a pressure tube and to this was added a solution of N-(4-azidobut-2-ynyl)-2-(R)-(1-(R)-(3,5-bis(trifluoromethyl)phenyl)ethoxy)-3-(S)-(4-fluorophenyl)morpholine (3.2 g) in dioxan (15 ml). The tube was sealed and the solution was heated at 90° C. for 16 h. The solution was evaporated to dryness and the residue chromatographed on silica gel (eluting with 5% methanol in dichloromethane containing 0.25% ammonia (SG. 0.88)) and the fractions containing the desired product were evaporated in vacuo to give the title compound. To a solution of this residue in diethyl ether was added 1M-HCl in methanol. The solution was evaporated to dryness and redissolved in diethyl ether to give crystals of the title compound hydrochloride salt m.p. 194°-198° C., [α]^22D+65.0° (c=0.5, H2 O).

Measured: stability of crystals

C[C@@H](O[C@H]1OCCN(Cc2nn[nH]c2CN(C)C)[C@H]1c1ccc(F)cc1)c1cc(C(F)(F)F)cc(C(F)(F)F)c1 [Description 9]
stable for at least five days: at 40° C. | at 40° C./75% relative humidity | at 80° C. | at 2000LUX
